Data taken from PMC11678782, “The Antioxidant and Anti-Inflammatory Activities of the Methanolic Extract, Fractions, and Isolated Compounds from Eriosema montanum Baker f. (Fabaceae)” (Molecules, 2024).
In brackets after ≈: the same amount, converted by molar mass. Entries after “also recorded” stand apart in the source; their conditions may differ.

Assays:
[1] = DPPH radical scavenging assay; conditions: 30 min, 517 nm
Description: (§1) Three in vitro antioxidant assays, namely, 2,2′-azinobis-(3-ethylbenzothiazoline-6-sulfonic acid (ABTS), 2,2′-diphenyl-1-picrylhydrazyl (DPPH), and ferric ion reducing antioxidant power (FRAP), were used to determine the antioxidant activity according to methods previously reported. Ascorbic acid (0 to 200 μg/mL) was used as positive control in these experiments, and Formula (1) below allowed us to evaluate the percentage of radical scavenging capacity. The inhibitory concentration (IC50) values were evaluated by plotting a nonlinear graph of percentage radical scavenging capacity versus logarithm of tested concentrations. Scavenging capacity (%) = [(A0 − A1)/A0] × 100(1) where A0 is absorbance of negative control, and A1 is absorbance of extract with ABTS^•+ radical cation.
To be able to determine the DPPH^• scavenging capacity of EMME, we performed a serial dilution of 40 μL of the sample (1 mg/mL) with methanol on a 96-well microtiter plate, with 160 μL of solution of DPPH^• thereafter (25 μg/mL). The incubation at 25 °C in the dark was performed after 30 min, with the absorbance values measured at 517 nm on a SpectraMax iD3 multi-mode microplate against a blank (extract plus methanol without DPPH^•). […]. Methanol with DPPH^• served as the negative control. Using Formula (1), the DPPH scavenging capability was calculated at the measured concentrations above, and as previously enumerated, the IC50 values were also calculated, as indicated in the previously described procedure.
(§2) The IC50 values were calculated for each biological experiment using the nonlinear regression curve of the % inhibitory activity versus the logarithm (log10) of the various tested concentrations using GraphPad Prism 6.0 software (GraphPad Software, Inc., San Diego, CA, USA). The data are shown as mean ⁱ SEM (standard error of the mean) values, and all biological experiments were conducted in triplicate (n = 3). The statistical analysis was conducted using GraphPad Prism 6.0 software (GraphPad Software, Inc., San Diego, CA, USA). One-way analysis of variance (ANOVA) was used to compare the data across the tested samples and/or controls, and Student–Newman–Keuls or Dunnett’s tests were then performed. A p-value of less than 0.05 indicated a significant difference in the results.

[2] = Ferric reducing antioxidant power (FRAP) assay; conditions: relative to 200 µg/mL gallic acid, 700 nm
Description: as §1
The generally used and almost standard method for performing the FRAP test is that developed by Benzie and Strain [15]. Indeed, the antioxidant power is determined in a colorimetric reaction linked to redox in which an intense blue-colored ferroustripyridyltriazine (Fe^2+-TPTZ) complex is obtained via reduction at a low pH of ferrictripyridyltriazine (Fe^3+-TPTZ). The incubation of a quantity of 50 μL of EMME (1.56 to 200 μg/mL) or 200 μg/mL of gallic acid (Merck, Lethabong, South Africa) on a 96-well plate was carried out with 50 μL of 1% potassium ferricyanide (prepared in 0.2 M of sodium phosphate buffer, pH 6.6) for 30 min at 50 °C. Then, 50 μL of 10% trichloroacetic acid (TCA), 40 μL of distilled water, and 10 μL of 0.1% ferric chloride were added, respectively. The absorbance values were recorded on a blank (extract plus sodium phosphate buffer) at 700 nm on a SpectraMax iD3 multi-mode microplate reader (Molecular Devices, San Jose, CA, USA); the FRAP activity was indicated as inhibition percentage of 200 μg/mL of gallic acid.
as §2

[3] = system: LPS-stimulated RAW 264.7 cells; assay: NO production inhibition in LPS-stimulated RAW 264.7 cells (Griess); type: cell-based, murine; conditions: for IC50: Mus musculus, RAW264.7, RAW 264.7, 2 h pre-treatment, 500 ng/mL LPS 24 h; for Inhibition of LPS-induced NO production: RAW 264.7, single-concentration test at 100 µg/mL, vs control cells
Description: […] in a humidified environment containing 5% CO2 and 95% air. For NO and ROS production inhibition assays, the cytotoxic effect of tested samples at 100 µg/mL after 24 h of exposure was initially measured on RAW 264.7 cells (10,000 cells per well) using the standard MTT assay. Then, for NO production inhibition assay, RAW 264.7 cells were pre-treated with tested samples at 100 µg/mL for 2 h followed by addition of culture medium containing 500 ng/mL of lipopolysaccharide (LPS) (Merck, Darmstadt, Germany). After 24 h of incubation under standard cell-culture conditions, NO released was measured in cell supernatants using the Griess reagent (Sigma Aldrich, Darmstadt, Germany), and a SpectraMax iD3 multi-mode microplate reader (Molecular Devices, San Jose, CA, USA) was used to capture the absorbance readings at 540 nm. The ability of each tested material to reduce nitric oxide synthesis by LPS-stimulated RAW 264.7 macrophages in comparison to the negative control (cells treated with DMSO at 0.5% and LPS without extract) was used to calculate the percentage of NO production inhibition.
as §2

[4] = system: LPS-stimulated RAW 264.7 cells; assay: ROS production in LPS-stimulated RAW 264.7 cells (DCFH-DA); type: cell-based, murine; conditions: 25, 50, 100 µg/mL, 2 h pre-treatment, 200 ng/mL LPS 24 h
Description: For ROS production inhibition, on a black/clear bottom 96-well plate, RAW 264.7 cells were seeded at a density of 10,000 cells per well. The cells were then pre-treated with non-toxic quantities of EMME and genistin (5) at 25, 50, and 100 µg/mL for two hours and then exposed to 200 ng/mL of LPS for twenty-four hours under standard culture conditions. Thereafter, the cells were washed twice with PBS, followed by the addition of 100 µL of fresh FBS-free medium containing 10 µM of the fluorescent probe 2′,7′-dichlorodihydrofluorescein diacetate (DCFH-DA) (Sigma-Aldrich, Darmstadt, Germany). After 30 min of additional incubation under usual culture conditions, PBS was added to the plate in place of the fluorescent probe. The fluorescence of the cells was measured using a SpectraMax iD3 multi-mode microplate reader (Molecular Devices, San Jose, CA, USA) at 485 nm (excitation) and 535 nm (emission). The percentage of cells treated with DMSO 0.5% without LPS, known as the negative control, was used to express the intracellular ROS levels. Using an excitation/emission filter (480/535 nm) on a 40× objective, images were taken with a camera (Flexacam C1, Leica Microsystems, Wetzlar, Germany) attached to a fluorescence microscope (Leica Microsytems GmbH, Wetzlar, Germany).

[5] = design: method as in PMID 12510840, PMID 22997529; conditions: ONOO−, DPPH•, ABTS•+; cited from earlier work

Compound | IC50 DPPH [1] [µg/mL] | IC50 FRAP [2] [µg/mL] | IC50 [3] [µg/mL] | IC50 DPPH ([1]; listed as genistin) [µg/mL] | Inhibition of LPS-induced NO production [3] | Inhibition of LPS-induced NO production ([3]; listed as Genistin (5)) | Inhibition of LPS-induced NO production ([3]; listed as genistin (5)) | Inhibition of LPS-induced ROS production [4] | Inhibition of LPS-induced ROS production ([4]; listed as Genistin (5)) | Inhibition of LPS-induced ROS production ([4]; listed as genistin (5)) | Antioxidant properties via scavenging activity [5]
CCCCCCCCCCCCCCCC [Compound 1, n-hexadecane] | >100 | >200 | > 100 |  |  |  |  |  |  |  | 
CCCCCCCCCCCCCCCCCCCCCCCO [Compound 3, tricosan-1-ol] | >100 | >200 | > 100 |  |  |  |  |  |  |  | 
O=c1c2c(O)cc(O)cc2oc2oc3cc(O)ccc3c12 [Compound 4, lupinalbin A] | >100 | >200 | > 100 |  |  |  |  |  |  |  | 
CC[C@H](/C=C/[C@@H](C)[C@H]1CC[C@H]2[C@@H]3CC=C4C[C@@H](O[C@@H]5O[C@H](CO)[C@@H](O)[C@H](O)[C@H]5O)CC[C@]4(C)[C@H]3CC[C@]12C)C(C)C [Compound 7, stigmasterol glucoside] | >100 | >200 | > 100 |  |  |  |  |  |  |  | 

Now from value to molecule, other results behind:

IC50 DPPH [1] [µg/mL] | IC50 FRAP [2] [µg/mL] | IC50 [3] [µg/mL] | IC50 DPPH ([1]; listed as genistin) [µg/mL] | Compound | Inhibition of LPS-induced NO production [3] | Inhibition of LPS-induced NO production ([3]; listed as Genistin (5)) | Inhibition of LPS-induced NO production ([3]; listed as genistin (5)) | Inhibition of LPS-induced ROS production [4] | Inhibition of LPS-induced ROS production ([4]; listed as Genistin (5)) | Inhibition of LPS-induced ROS production ([4]; listed as genistin (5)) | Antioxidant properties via scavenging activity [5]
99.89 ± 1.26 (≈ 231 µM) | >200 | 66 ± 4.21 (≈ 153 µM) | 91.02 (≈ 211 µM) | O=c1c(-c2ccc(O)cc2)coc2cc(O[C@@H]3O[C@H](CO)[C@@H](O)[C@H](O)[C@H]3O)cc(O)c12 [Compound 5, genistin] | significantly inhibited | able to inhibit | moderate activity; also recorded: moderately effective | markedly and dose-dependently reduced | able to inhibit | moderate activity; also recorded: moderately effective | moderate antioxidant properties
>100 | >200 | > 100 |  | CO[C@H]1[C@H](O)[C@@H](O)[C@@H](O)[C@H](O)[C@@H]1O [Compound 6, D-pinitol] |  |  |  |  |  |  | 
